PubChem BioAssay AID248 (DTP/NCI, 2004)
“And” between values parts separate entries of the source, which are not always exact repeats. Equal values may be shown once. Toxic doses and inconclusive results are not listed. No stated cut-off is given here; in the data, active means T/C of 150% or more; inactive means T/C below 125%.

Test system: L1210 leukemia ip in BDF1 mice, survival T/C
Assay: NCI In Vivo Anticancer Drug Screen. Data for tumor model L1210 Leukemia (intraperitoneal) in B6D2F1 (BDF1) mice
Conditions: endpoint: mean survival time, higher = longer survival
In short: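 In this screen, tumor-bearing mice given compound are compared to those given vehicle, and their survival values are reported as a treated-to-control quotient.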

[1] = dose: 100.0 mg/kg/injection, schedule: Q04DX003 (ip), vehicle: saline
[2] = dose: 200.0 mg/kg/injection, schedule: Q04DX003 (ip), vehicle: saline
[3] = dose: 400.0 mg/kg/injection, schedule: Q04DX003 (ip), vehicle: saline
[4] = dose: 100.0 mg/kg/injection, schedule: Q01DX009 (ip), vehicle: saline with Tween-80
[5] = dose: 100.0 mg/kg/injection, schedule: Q04DX002 (ip), vehicle: saline with Tween-80
[6] = dose: 200.0 mg/kg/injection, schedule: Q04DX002 (ip), vehicle: saline with Tween-80
[7] = dose: 400.0 mg/kg/injection, schedule: Q04DX002 (ip), vehicle: saline with Tween-80
[8] = dose: 50.0 mg/kg/injection, schedule: Q04DX003 (ip), vehicle: saline with Tween-80
[9] = dose: 100.0 mg/kg/injection, schedule: Q04DX003 (ip), vehicle: saline with Tween-80
[10] = dose: 100.0 mg/kg/injection, schedule: Q04DX002 (ip), vehicle: Klucel (hydroxypropylcellulose) (HPC)
[11] = dose: 200.0 mg/kg/injection, schedule: Q04DX002 (ip), vehicle: Klucel (hydroxypropylcellulose) (HPC)
[12] = dose: 400.0 mg/kg/injection, schedule: Q04DX002 (ip), vehicle: Klucel (hydroxypropylcellulose) (HPC)
[13] = dose: 100.0 mg/kg/injection, schedule: Q01DX009 (ip), vehicle: Klucel (hydroxypropylcellulose) (HPC)
[14] = dose: 100.0 mg/kg/injection, schedule: Q04DX003 (ip), vehicle: Klucel (hydroxypropylcellulose) (HPC)
[15] = dose: 200.0 mg/kg/injection, schedule: Q01DX009 (ip), vehicle: Klucel (hydroxypropylcellulose) (HPC)
[16] = dose: 200.0 mg/kg/injection, schedule: Q04DX003 (ip), vehicle: Klucel (hydroxypropylcellulose) (HPC)
[17] = dose: 400.0 mg/kg/injection, schedule: Q01DX009 (ip), vehicle: Klucel (hydroxypropylcellulose) (HPC)
[18] = dose: 400.0 mg/kg/injection, schedule: Q04DX003 (ip), vehicle: Klucel (hydroxypropylcellulose) (HPC)
[19] = dose: 100.0 mg/kg/injection, schedule: Q01DX009 (ip), vehicle: saline
[20] = dose: 200.0 mg/kg/injection, schedule: Q01DX009 (ip), vehicle: saline

Measured: T/C

CCOC(=O)c1ccc(N(Cc2cccc([N+](=O)[O-])c2)S(=O)(=O)c2ccc(C)cc2)cc1
inactive: dose: 75.0 mg/kg/injection, schedule: Q01DX001 (ip), vehicle: saline with Tween-80 93 % of control | dose: 150.0 mg/kg/injection, schedule: Q01DX001 (ip), vehicle: saline with Tween-80 87 % of control

CC1(C(N)=O)OCCO1
inactive: [1] 103 % of control | [2] 96 % of control | [3] 100 % of control

COc1cccc(NC(=O)Nc2ccccc2Cl)c1
inactive: dose: 100.0 mg/kg/injection, schedule: Q01DX009 (ip), vehicle: gum acacia 93 % of control | dose: 100.0 mg/kg/injection, schedule: Q04DX003 (ip), vehicle: gum acacia 92 % of control | dose: 200.0 mg/kg/injection, schedule: Q01DX009 (ip), vehicle: gum acacia 98 % of control | dose: 200.0 mg/kg/injection, schedule: Q04DX003 (ip), vehicle: gum acacia 90 % of control | dose: 400.0 mg/kg/injection, schedule: Q01DX009 (ip), vehicle: gum acacia 96 % of control | dose: 400.0 mg/kg/injection, schedule: Q04DX003 (ip), vehicle: gum acacia 94 % of control

CCCC(CC#N)(CCC)CCC
inactive: dose: 37.5 mg/kg/injection, schedule: Q01DX Z (ip), vehicle: carboxymethylcellulose (CMC) 97 % of control | dose: 75.0 mg/kg/injection, schedule: Q01DX Z (ip), vehicle: carboxymethylcellulose (CMC) 101 % of control | dose: 100.0 mg/kg/injection, schedule: Q01DX Z (ip), vehicle: carboxymethylcellulose (CMC) 95 % of control | dose: 200.0 mg/kg/injection, schedule: Q01DX Z (ip), vehicle: carboxymethylcellulose (CMC) 100 % of control

CC1CC2(C)C(CC1=O)CC(C)C1C3CCC(O)C3(C)CCC12 (configuration not stated)
inactive: [4] 92 % of control | dose: 200.0 mg/kg/injection, schedule: Q01DX009 (ip), vehicle: saline with Tween-80 96 % of control | dose: 400.0 mg/kg/injection, schedule: Q01DX009 (ip), vehicle: saline with Tween-80 94 % of control

O=C(N/N=C/c1ccccc1O)C(O)C(O)C(O)C(O)CO (configuration not stated)
inactive: [5] 92 % of control | [6] 106 % of control | [7] 95 % of control

CC(=O)N=C1C=C(NC(C)=O)C(=O)c2ncccc21
inactive: [8] 96 % of control | [9] 96 % of control

C[N+](C)(C)C12CCC(CC1)C1([N+](C)(C)C)CCC2CC1
inactive: [10] 109 % of control | [11] 113 % of control | [12] 117 % of control

CCCCCCCCCC[Se]C#N
inactive: dose: 5.0 mg/kg/injection, schedule: Q01DX001 (ip), vehicle: saline 112 % of control | dose: 10.0 mg/kg/injection, schedule: Q01DX001 (ip), vehicle: saline 114 % of control

O=C1c2c(O)ccc([N+](=O)[O-])c2C(=O)c2c([N+](=O)[O-])ccc(O)c21
inactive: [13] 93 % of control | [14] 106 % of control | [15] 105 % of control | [16] 95 % of control | [17] 103 % of control | [18] 95 % of control

O=[N+]([O-])C1CCC(C2=CSC3CCCCC3N2)CC1 (configuration not stated)
inactive: [5] 90 % of control | [6] 101 % of control | [7] 116 % of control

CCN1C(=O)CC2CCCC1C2 (configuration not stated)
inactive: dose: 100.0 mg/kg/injection, schedule: Q01DX001 (ip), vehicle: saline 90 % of control

COc1cc(=O)oc(/C=C/C=C/C=C/C(C)=C\C2(C)OC(C)C(C)(O)C2O)c1C (configuration not stated)
inactive: dose: 12.5 mg/kg/injection, schedule: Q01DX009 (ip), vehicle: other 93 % of control | dose: 25.0 mg/kg/injection, schedule: Q01DX009 (ip), vehicle: other 100 % of control | dose: 50.0 mg/kg/injection, schedule: Q01DX009 (ip), vehicle: other 93 % of control

COc1ccc2c3c(ccc2c1)C(=O)C(C)(C#N)CC3 (configuration not stated)
inactive: [19] 88 % of control | [1] 89 % of control | [20] 91 % of control | [2] 89 % of control | dose: 400.0 mg/kg/injection, schedule: Q01DX009 (ip), vehicle: saline 95 % of control | [3] 94 % of control

C=C[CH2][Sn]([c]1ccccc1)([c]1ccccc1)[c]1ccccc1
inactive: dose: 50.0 mg/kg/injection, schedule: Q01DX009 (ip), vehicle: saline 92 % of control and 101 % of control | [19] 96 % of control and 101 % of control | [9] 91 % of control | [20] 96 % of control and 97 % of control

O=C(Cl)c1ccc(C(Cl)(Cl)Cl)cc1
inactive: [14] 95 % of control | [16] 111 % of control | [18] 104 % of control

C=C1C=C(C)N(C(=O)c2ccccc2Br)CCN1C(=O)c1ccccc1Br
inactive: [14] 96 % of control | [16] 105 % of control | [18] 100 % of control

N=C(N)c1ccc(NC(=O)c2ccc(C(=O)Nc3ccc(C(=N)N)cc3)c(N)c2)cc1
inactive: dose: 62.0 mg/kg/injection, schedule: Q01DX Z (ip), vehicle: carboxymethylcellulose (CMC) 106 % of control | dose: 125.0 mg/kg/injection, schedule: Q01DX Z (ip), vehicle: carboxymethylcellulose (CMC) 118 % of control | dose: 500.0 mg/kg/injection, schedule: Q01DX Z (ip), vehicle: carboxymethylcellulose (CMC) 113 % of control

O=[N+]([O-])c1ccc(C[N+]23CCN(CC2)CC3)cc1
inactive: dose: 50.0 mg/kg/injection, schedule: Q01DX009 (ip), vehicle: saline with Tween-80 96 % of control | [8] 106 % of control | [4] 102 % of control | [9] 106 % of control | dose: 200.0 mg/kg/injection, schedule: Q04DX003 (ip), vehicle: saline with Tween-80 101 % of control

O=[N+]([O-])c1cccc(C=Nc2ccccc2Cl)c1
inactive: dose: 100.0 mg/kg/injection, schedule: Q01DX001 (ip), vehicle: Klucel (hydroxypropylcellulose) (HPC) 101 % of control and 103 % of control | dose: 200.0 mg/kg/injection, schedule: Q01DX001 (ip), vehicle: Klucel (hydroxypropylcellulose) (HPC) 101 % of control | dose: 400.0 mg/kg/injection, schedule: Q01DX001 (ip), vehicle: Klucel (hydroxypropylcellulose) (HPC) 101 % of control and 103 % of control

OCCSC(SCCO)=C(SCCO)SCCO
inactive: [13] 105 % of control | [14] 97 % of control | [15] 102 % of control | [16] 92 % of control | [17] 96 % of control | [18] 94 % of control

NC(=O)Nc1ccccc1-c1ccccc1
inactive: [10] 103 % of control | [11] 109 % of control | [12] 103 % of control
